We go through 22 compounds from PubChem BioAssay (NCI).

Test systems include SF-539 CNS; SK-MEL-2 melanoma; OVCAR-4 ovarian; LOX IMVI melanoma; UO-31 renal; KM12 colon; SK-MEL-5 melanoma; IGROV1 ovarian; OVCAR-5 ovarian; M14 melanoma.
What all share (test): NCI tumour cell line growth inhibition, 48 h

Several values for one entry are separate records, joined by “and”; a condition that tells them apart may be missing. Equal values may be shown once.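 Protocol summary: plate cells (96-well), add compound at 5 concentrations, incubate 48 h, interpolate endpoints linearly. Here, GI50 denotes the concentration required for 50% inhibition of growth. TGI is the concentration that stops growth completely.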 Starred links: 1 amine or outer side, 2 acyl side, 3 side chain; linkers in the order of their positions; H or OH if unused. Positions of bridges follow the written chain, without caps; N, C: chain ends. Non-standard residues stand in square brackets, D forms with d. Residues, ends and D or L forms follow the SMILES beside them. Chains are numbered I, II in the order given. Actinocin(1to9) = Cc1c2oc3c(C)ccc(C(=O)[*:2])c3nc-2c(C(=O)[*:1])c(N)c1=O; NMeV = CN[CH](C(=O)O)C(C)C; Sar = CNCC(=O)O Bounds are passed on as bounds.

As for `O=C(CSc1nc2ccc([N+](=O)[O-])cc2s1)c1ccc2ccccc2c1`, the TGI in the experiment with SF-539 CNS, in the experiment with SK-MEL-2 melanoma, with OVCAR-4 ovarian, with LOX IMVI melanoma, in the experiment with UO-31 renal and in the experiment with KM12 colon was above 100 µM in each case. In addition, the TGI in the experiment on SK-MEL-5 melanoma, with IGROV1 ovarian, in the experiment on OVCAR-5 ovarian and in the experiment on M14 melanoma was above 100 µM throughout.

Take `Nc1ncnc2c1sc1nc3ccccc3n12`: the TGI with SF-539 CNS was 47.9 µM; in the experiment with SK-MEL-2 melanoma, above 100 µM; with OVCAR-4 ovarian it was above 100 µM; with UO-31 renal, above 100 µM; in the experiment with KM12 colon, above 85 µM; with SK-MEL-5 melanoma it was above 100 µM. The TGI in the experiment with IGROV1 ovarian, in the experiment on OVCAR-5 ovarian and with M14 melanoma was above 100 µM throughout.

`CCC(C)C1NC(=O)C(NC(=O)c2c3nc4c(C(=O)NC5C(=O)NC(C(C)CC)C(=O)N6CCCC6C(=O)N(C)CC(=O)N(C)C(C(C)C)C(=O)OC5C)ccc(C)c4oc-3c(C)c(=O)c2N)C(C)OC(=O)C(C(C)C)N(C)C(=O)CN(C)C(=O)C2CCCN2C1=O` (stereo not drawn) (I: TIP[Sar][NMeV] / II: TIP[Sar][NMeV]; ester I:1-I:C, II:1-II:C; linker I:N-II:N via Actinocin(1to9); configuration not given here): the TGI is 0.00698 µM in the experiment on SF-539 CNS; 0.00277 µM in the experiment with SK-MEL-2 melanoma; 0.273 µM in the experiment with OVCAR-4 ovarian; 0.143 µM and 0.316 µM in the experiment on UO-31 renal; 0.194 µM in the experiment on KM12 colon; 0.018 µM in the experiment on SK-MEL-5 melanoma. The TGI was 0.0273 µM and 0.0172 µM in the experiment with OVCAR-5 ovarian; 0.0272 µM with M14 melanoma.

As for `CC(C)(C)OC(=O)NC(CCCCNC(=O)OCc1ccccc1)C(=O)NCCNc1ccc(NCCNC(=O)C(CCCCNC(=O)OCc2ccccc2)NC(=O)OC(C)(C)C)c2c1C(=O)c1ccccc1C2=O` (stereo not drawn), the TGI is above 52.8 µM with SF-539 CNS; 20.5 µM in the experiment on SK-MEL-2 melanoma; above 100 µM with OVCAR-4 ovarian; above 100 µM in the experiment on LOX IMVI melanoma; above 100 µM in the experiment with UO-31 renal; above 100 µM in the experiment with KM12 colon. The TGI in the experiment on SK-MEL-5 melanoma, with IGROV1 ovarian, in the experiment with OVCAR-5 ovarian and with M14 melanoma was above 100 µM each time.

In the case of `Cn1c(=O)[nH]c2nncnc2c1=O`, the TGI was 246 µM with SF-539 CNS; 312 µM in the experiment on SK-MEL-2 melanoma; above 319 µM with OVCAR-4 ovarian; above 625 µM in the experiment with LOX IMVI melanoma; 358 µM in the experiment on UO-31 renal; above 353 µM in the experiment on KM12 colon. Besides, the TGI in the experiment on SK-MEL-5 melanoma was 177 µM; in the experiment with IGROV1 ovarian, 133 µM; in the experiment with OVCAR-5 ovarian, above 625 µM.

As for `O=c1[nH]c(Nc2ccc(Cl)c(C(F)(F)F)c2)nc2nc[nH]c12`, the TGI was above 100 µM in the experiment with SF-539 CNS; 91.2 µM in the experiment on SK-MEL-2 melanoma; above 100 µM in the experiment with OVCAR-4 ovarian; 81.7 µM with LOX IMVI melanoma; above 100 µM in the experiment on UO-31 renal; above 100 µM in the experiment on KM12 colon. Further, the TGI in the experiment with SK-MEL-5 melanoma, in the experiment with IGROV1 ovarian, in the experiment on OVCAR-5 ovarian and in the experiment on M14 melanoma was above 100 µM throughout.

Consider `Cc1ccccc1N=Nc1c(O)c(S(=O)(=O)O)cc2cc(S(=O)(=O)O)ccc12`, for which the TGI in the experiment on SF-539 CNS, with SK-MEL-2 melanoma, in the experiment with OVCAR-4 ovarian, in the experiment on UO-31 renal, with KM12 colon and in the experiment with SK-MEL-5 melanoma was above 100 µM each time. The TGI in the experiment on IGROV1 ovarian, with OVCAR-5 ovarian and in the experiment with M14 melanoma was above 100 µM throughout.

`COc1ccc(C(=O)C2=NON3OC23C(=O)c2ccc(OC)cc2)cc1` (stereo not drawn): the TGI in the experiment with SF-539 CNS turned out to be 24 µM; in the experiment on SK-MEL-2 melanoma, 34.5 µM; in the experiment with OVCAR-4 ovarian, 16.2 µM; in the experiment on LOX IMVI melanoma, 11.4 µM; with UO-31 renal it was 28 µM; with KM12 colon, 36.6 µM. Besides, the TGI in the experiment on SK-MEL-5 melanoma is 29.3 µM; in the experiment on IGROV1 ovarian, 27.3 µM; with OVCAR-5 ovarian, 36.7 µM; in the experiment with M14 melanoma, 31 µM.

In the case of `COCC1CCCN1c1ccc(C=N/C(C#N)=C(\N)C#N)cc1` (stereo not drawn), the GI50 was 40.3 µM with SF-539 CNS; above 100 µM in the experiment on SK-MEL-2 melanoma; above 100 µM in the experiment with OVCAR-4 ovarian; above 100 µM in the experiment with LOX IMVI melanoma; 4.98 µM in the experiment on UO-31 renal; above 100 µM with KM12 colon. The values for the GI50 in the experiment on SK-MEL-5 melanoma, in the experiment with OVCAR-5 ovarian and in the experiment on M14 melanoma were 98.2 µM, above 100 µM and above 100 µM, respectively. The TGI in the experiment on SF-539 CNS, in the experiment on SK-MEL-2 melanoma, with OVCAR-4 ovarian, in the experiment on LOX IMVI melanoma, in the experiment on UO-31 renal and in the experiment on KM12 colon was above 100 µM throughout. Besides, the TGI in the experiment with SK-MEL-5 melanoma, in the experiment on OVCAR-5 ovarian and in the experiment on M14 melanoma was above 100 µM in each case.

As for `OCc1cn(C(c2ccccc2)(c2ccccc2)c2ccccc2)cn1`, the TGI with SK-MEL-2 melanoma, in the experiment on OVCAR-4 ovarian, in the experiment on LOX IMVI melanoma, with UO-31 renal, with SK-MEL-5 melanoma and in the experiment with IGROV1 ovarian was above 100 µM throughout. For the same compound, the TGI in the experiment on OVCAR-5 ovarian and in the experiment on M14 melanoma was above 100 µM throughout.

On to `COc1ccc2nc3c(C(=O)NCCN(C)C)cccc3cc2c1`, for which the TGI in the experiment on SF-539 CNS was 7.79 µM; with SK-MEL-2 melanoma it was 5.44 µM; in the experiment on OVCAR-4 ovarian, 8.49 µM; in the experiment on LOX IMVI melanoma, 3.59 µM; in the experiment on UO-31 renal, 3.97 µM; in the experiment on KM12 colon, 13 µM. Further, the TGI with SK-MEL-5 melanoma was 3.28 µM; with IGROV1 ovarian, 6.77 µM; with OVCAR-5 ovarian, 5.9 µM.

For the compound `COc1nc2[nH]ccc2c(=O)[nH]1`, the TGI in the experiment on SF-539 CNS, in the experiment on SK-MEL-2 melanoma, in the experiment on OVCAR-4 ovarian, with LOX IMVI melanoma, in the experiment on UO-31 renal and in the experiment with KM12 colon was above 100 µM in each case. Besides, the TGI with SK-MEL-5 melanoma, in the experiment with IGROV1 ovarian, in the experiment on OVCAR-5 ovarian and with M14 melanoma was above 100 µM throughout.

In the case of `CC(C)(C)OC(=O)n1c2ccccc2c2c(=O)nc(N3CCCCC3)sc21`, the TGI is above 100 µM with SF-539 CNS; above 100 µM with SK-MEL-2 melanoma; above 100 µM in the experiment with OVCAR-4 ovarian; above 100 µM in the experiment on LOX IMVI melanoma; 44.9 µM in the experiment with UO-31 renal; above 100 µM in the experiment on KM12 colon. Besides, the TGI with SK-MEL-5 melanoma, in the experiment with IGROV1 ovarian, in the experiment with OVCAR-5 ovarian and in the experiment on M14 melanoma was above 100 µM in each case.

With `Nc1c(C(=O)O)nnc2cc(Cl)c(Cl)cc12`, the TGI with SF-539 CNS, in the experiment on SK-MEL-2 melanoma, in the experiment on OVCAR-4 ovarian, in the experiment on LOX IMVI melanoma, in the experiment with UO-31 renal and with KM12 colon was above 100 µM each time. Moreover, the TGI in the experiment on SK-MEL-5 melanoma, with IGROV1 ovarian, in the experiment with OVCAR-5 ovarian and in the experiment on M14 melanoma was above 100 µM throughout.

As to `COc1cc2oc(=O)ccc2cc1C(=O)CC(C)C`, the TGI in the experiment on SF-539 CNS, in the experiment with SK-MEL-2 melanoma, in the experiment with OVCAR-4 ovarian, in the experiment with LOX IMVI melanoma, with UO-31 renal and in the experiment with KM12 colon was above 100 µM each time. In addition, the TGI in the experiment on SK-MEL-5 melanoma, with IGROV1 ovarian, with OVCAR-5 ovarian and in the experiment on M14 melanoma was above 100 µM throughout.

Regarding `CC(=O)OC1CC[C@@]2(C)C(=CC[C@@H]3[C@@H]2CC[C@]2(C)Nc4nn(S(C)(=O)=O)cc4C[C@@H]32)C1` (stereo partly drawn), the TGI with SK-MEL-2 melanoma is 58.8 µM; with UO-31 renal, above 100 µM; in the experiment with KM12 colon, 81.8 µM; with SK-MEL-5 melanoma, 28.4 µM; in the experiment with IGROV1 ovarian it was above 100 µM; in the experiment on OVCAR-5 ovarian, above 100 µM. This compound came in with a TGI with M14 melanoma of 36.3 µM.

In the case of `N#CC12Cc3cc4c(cc3-c3cccc(c31)CCN2C(=O)c1ccccc1)OCO4` (stereo not drawn), the TGI in the experiment with SF-539 CNS, in the experiment on SK-MEL-2 melanoma, with LOX IMVI melanoma, with UO-31 renal, in the experiment on KM12 colon and with SK-MEL-5 melanoma was above 100 µM each time. Besides, the TGI in the experiment with IGROV1 ovarian, in the experiment on OVCAR-5 ovarian and in the experiment with M14 melanoma was above 100 µM throughout.

For `C[N+]1(CCC(=O)c2ccco2)CC2CCC(CC2)C1` (stereo not drawn), the TGI in the experiment with SF-539 CNS, with SK-MEL-2 melanoma, in the experiment on OVCAR-4 ovarian, in the experiment on LOX IMVI melanoma, with UO-31 renal and with KM12 colon was above 100 µM each time. For the same compound, the TGI in the experiment on SK-MEL-5 melanoma, in the experiment with IGROV1 ovarian, with OVCAR-5 ovarian and in the experiment with M14 melanoma was above 100 µM each time.

For `O=c1ccc2nc3cc(Br)ccc3sc-2c1`, the TGI with SF-539 CNS, with SK-MEL-2 melanoma, in the experiment with OVCAR-4 ovarian, in the experiment with UO-31 renal, with KM12 colon and in the experiment on SK-MEL-5 melanoma was above 100 µM each time. The TGI in the experiment on IGROV1 ovarian, in the experiment on OVCAR-5 ovarian and in the experiment with M14 melanoma was above 100 µM each time.

As to `O=C(O)c1ccc(C(=O)c2ccccc2C(=O)O)cc1C(=O)O`, the TGI in the experiment with SF-539 CNS, with SK-MEL-2 melanoma, in the experiment with OVCAR-4 ovarian, in the experiment on LOX IMVI melanoma, with UO-31 renal and in the experiment with KM12 colon was above 100 µM throughout. For the same compound, the TGI with SK-MEL-5 melanoma, with IGROV1 ovarian, with OVCAR-5 ovarian and with M14 melanoma was above 100 µM throughout.

Regarding `COCCNCc1ccc(-c2cc3nccc(Oc4ccc(NC(=S)NC(=O)Cc5ccc(F)cc5)cc4F)c3s2)nc1`, the GI50 in the experiment on SF-539 CNS was 0.909 µM; in the experiment with SK-MEL-2 melanoma, 6.01 µM; with KM12 colon, 0.328 µM; in the experiment with OVCAR-5 ovarian it was 3.05 µM. Moreover, the TGI in the experiment on SF-539 CNS is 2.41 µM; in the experiment with SK-MEL-2 melanoma, 19.1 µM; with KM12 colon, 2 µM; with OVCAR-5 ovarian, 13.6 µM.

Regarding `CN(C)c1ccc(C=Nc2ccc(Oc3ccc(Cl)cc3)c(Cl)c2)cc1`, the TGI in the experiment with SF-539 CNS stood at 39.8 µM; with SK-MEL-2 melanoma it was 37.4 µM; with OVCAR-4 ovarian it was 66.4 µM; in the experiment with LOX IMVI melanoma, 47.6 µM; in the experiment on UO-31 renal, 22.9 µM; with KM12 colon it was 34.2 µM. Further, the TGI is 33.4 µM with SK-MEL-5 melanoma, 85.1 µM in the experiment on IGROV1 ovarian, above 100 µM in the experiment on OVCAR-5 ovarian and 87.1 µM with M14 melanoma.
